Drawing on patent US9409907B2, “Inhibitor compounds” (Cancer Research Technology Limited, priority 2012, dated 2016), this text covers IC50 for 8 compounds.

Chain of full length MPS1 (P33981 whole entry): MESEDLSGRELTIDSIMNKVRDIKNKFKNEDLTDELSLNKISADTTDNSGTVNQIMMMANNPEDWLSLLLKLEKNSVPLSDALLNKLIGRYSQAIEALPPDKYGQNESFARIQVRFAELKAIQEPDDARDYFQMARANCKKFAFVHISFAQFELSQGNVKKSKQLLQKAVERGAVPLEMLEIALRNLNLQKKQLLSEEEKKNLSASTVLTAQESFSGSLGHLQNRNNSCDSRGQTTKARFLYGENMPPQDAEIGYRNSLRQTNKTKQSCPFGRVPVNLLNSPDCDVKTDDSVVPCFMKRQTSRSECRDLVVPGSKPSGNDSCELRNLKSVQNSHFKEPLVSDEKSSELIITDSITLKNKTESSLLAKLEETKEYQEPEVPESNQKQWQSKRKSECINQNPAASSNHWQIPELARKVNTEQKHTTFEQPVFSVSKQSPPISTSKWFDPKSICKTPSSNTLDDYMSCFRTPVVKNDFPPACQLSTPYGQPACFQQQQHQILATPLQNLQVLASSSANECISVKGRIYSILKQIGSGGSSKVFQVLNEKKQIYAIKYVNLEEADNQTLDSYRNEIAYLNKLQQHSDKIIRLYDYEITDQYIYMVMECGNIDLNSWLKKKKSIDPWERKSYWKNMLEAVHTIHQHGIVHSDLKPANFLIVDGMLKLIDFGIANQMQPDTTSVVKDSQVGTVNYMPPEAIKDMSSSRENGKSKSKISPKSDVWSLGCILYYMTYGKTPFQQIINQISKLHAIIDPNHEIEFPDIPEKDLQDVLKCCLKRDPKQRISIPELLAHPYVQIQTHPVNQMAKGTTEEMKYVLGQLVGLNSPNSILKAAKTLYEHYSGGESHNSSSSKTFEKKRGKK

The assay has as its target full length MPS1 (Homo sapiens (Human), UniProt P33981). As to the kind of experiment: Measurement of inhibition of MPS1 kinase (Caliper EZ reader mobility-shift enzyme assay). Format: biochemical. The note with it: full length MPS1 12.5 nM or 3 nM, H236 peptide 5 μM, ATP 10 μM, 60 min at room temperature. As for the experimental part: Measurement of Inhibition of MPS1 Kinase
The reaction was carried out for 60 min at room temperature and stopped by the addition of buffer (10 μl) containing 20 mM EDTA, 0.05% (v/v) Brij-35, in 0.1M HEPES-buffered saline (Free acid, Sigma, UK). The plate was read on a Caliper EZ reader II (Caliper Life Sciences).
The % inhibition of the compounds is calculated relative to the means of selected control wells.
Usually IC50 stands for the concentration needed to halve the response being measured. As for `COc1cc(-c2nncn2C)ccc1Nc1ncc2c(C)cnc(NCC(C)(C)C)c2n1` [Example 151, N^2-(2-methoxy-4-(4-methyl-4H-1,2,4-triazol-3-yl)phenyl)-5-methyl-N^8-neopentylpyrido[3,4-d]pyrimidine-2,8-diamine], the half-inhibitory concentration (IC50) is 2 nM.
Consider `COc1cc(-c2cnn(C)c2)ccc1Nc1ncc2ccnc(-c3cnn(C(C)C)c3)c2n1` [Example 92, 8-(1-isopropyl-1H-pyrazol-4-yl)-N-(2-methoxy-4-(1-methyl-1H-pyrazol-4-yl)phenyl)pyrido[3,4-d]pyrimidin-2-amine], for which the IC50 was 14 nM.
In the case of `COc1cc(-c2cnn(C)c2)ccc1Nc1ncc2ccnc(NC(C)C3CCOC3)c2n1` (racemic) [Example 125, Racemic N^2-(2-methoxy-4-(1-methyl-1H-pyrazol-4-yl)phenyl)-N^8-(1-(tetrahydrofuran-3-yl)ethyl)pyrido[3,4-d]pyrimidine-2,8-diamine], the IC50 was 3 nM.
The figure for `COc1cc(-c2cnn(C)c2)ccc1Nc1ncc2ccnc(NC[C@@]3(C)CCOC3)c2n1` [Example 142, (R)—N^2-(2-methoxy-4-(1-methyl-1H-pyrazol-4-yl)phenyl)-N^3-((3-methyltetrahydrofuran-3-yl)methyl)pyrido[3,4-d]pyrimidine-2,8-diamine] is 3 nM.
Turning to `COc1cc(-c2cnc(C)n2C)ccc1Nc1ncc2ccnc(NCC(C)(C)C)c2n1` [Example 50, N2-(4-(1,2-dimethyl-1H-imidazol-5-yl)-2-methoxyphenyl)-N8-neopentylpyrido[3,4-d]pyrimidine-2,8-diamine], the IC50 is 7 nM.
With `COc1cc(-c2cnn(C)c2)ccc1Nc1ncc2ccnc(N3CCC(OC)CC3)c2n1` [Example 138, N-(2-Methoxy-4-(1-methyl-1H-pyrazol-4-yl)phenyl)-8-(4-methoxypiperidin-1-yl)pyrido[3,4-d]pyrimidin-2-amine], the IC50 is 8 nM.
For `COc1cc(C(=O)N2CC(OC)C2)ccc1Nc1cc2c(-c3c(C)noc3C)cccc2cn1` [Example 5, (4-((5-(3,5-dimethylisoxazol-4-yl)isoquinolin-3-yl)amino)-3-methoxyphenyl)(3-methoxyazetidin-1-yl)methanone], the IC50 was 261 nM.
The figure for `Cc1cc(-c2cnn(C)c2)ccc1Nc1ncc2ccnc(NCC3CC3)c2n1` [Example 99, N8-(cyclopropylmethyl)-N2-(2-methyl-4-(1-methyl-1H-pyrazol-4-yl)phenyl)pyrido[3,4-d]pyrimidine-2,8-diamine] is 8 nM.
